Laboratory results reported in US20260001893A1, “SMALL MOLECULE MODULATORS OF STAT6” (Gilead Sciences, Inc., priority 2024, published 2026).

Key:
[1] = tested on: Eotaxin-3 (CCL26) release in human whole blood stimulated with IL-4; experiment: Human whole blood eotaxin-3 assay (IL-4 stimulated eotaxin-3 release); format: cell-based; details: Homo sapiens, 48 h, human whole blood stimulated with recombinant human IL-4, 48 h, geometric mean; for EC50: inhibition of eotaxin-3 release, given for test compounds with >80% Emax; for Emax: given for test compounds with <80% Emax
Method in brief: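 Eotaxin-3 (CCL26) release was quantified by MSD immunoassay in supernatants of human heparinised whole blood after 48 h at 37° C with IL-4 ([…] final). Compounds, in 4-fold dilutions at 0.5% DMSO, were added 2 h before stimulation.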

[2] = molecular target: T1, Human STAT6 (truncated, aa122-658, with N-terminal His-tag) (Homo sapiens, UniProt P42226); experiment: Surface plasmon resonance (SPR) assay, binding to human STAT6; details: Biacore 8K, 25° C, immobilized human STAT6 on CM5 chip, multi-cycle kinetics; geometric mean
T1 construct: Human STAT6 (truncated, aa122-658, with N-terminal His-tag, expressed in insect cells); His-tag (N); made in house; host or cells: insect cells
T1 sequence (P42226 122-658): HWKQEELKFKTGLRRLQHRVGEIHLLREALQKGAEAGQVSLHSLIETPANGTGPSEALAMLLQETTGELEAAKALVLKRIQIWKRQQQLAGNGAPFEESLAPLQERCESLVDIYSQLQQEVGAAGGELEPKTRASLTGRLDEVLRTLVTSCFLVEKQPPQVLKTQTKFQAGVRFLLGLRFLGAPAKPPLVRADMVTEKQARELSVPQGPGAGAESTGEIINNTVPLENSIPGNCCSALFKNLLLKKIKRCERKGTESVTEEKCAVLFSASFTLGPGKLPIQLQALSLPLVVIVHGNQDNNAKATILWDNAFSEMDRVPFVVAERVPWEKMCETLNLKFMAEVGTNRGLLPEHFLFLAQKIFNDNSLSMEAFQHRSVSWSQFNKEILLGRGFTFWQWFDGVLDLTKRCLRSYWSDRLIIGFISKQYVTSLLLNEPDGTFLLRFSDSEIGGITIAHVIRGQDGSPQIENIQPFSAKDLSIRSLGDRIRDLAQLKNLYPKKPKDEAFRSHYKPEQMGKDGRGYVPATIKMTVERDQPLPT
Method: Surface Plasmon Resonance Assay
Biacore instruments from the 8K-series (Cytiva) were used, and measurements were performed at 25° C. Human STAT6 (truncated, aa122-658, with N-terminal His-tag, expressed in insect cells) was immobilized in the active flow cells on a CM5 chip using amine-coupling (default settings) at 10 μg/ml in 10 mM acetate buffer pH 5.5, at a contact time of 120-420 sec. and a flow rate of 10 μl/min. Reference flow cells were deactivated using blank immobilization. PBS-P+(Cytiva) supplemented with 2% DMSO was used as running buffer, and solvent correction was applied. Compounds were tested by multi-cycle kinetics injections using a contact time of 60 sec., dissociation time of up to 300 sec., and a flow rate of 30 μl/min.
Solvent-corrected, reference-subtracted and blank-corrected data was processed and binding isotherms were fitted according to a single report point from each sensorgram (Standard: Late binding (5 sec. before injection end); alternative: Earlier report point according to binding profile). Data fitting was done both with unfixed Rmax and with Rmax fixed to the theoretical value* assuming 1:1 binding to allow processing of data from both weak and strong binders as well as to evaluate binding stoichiometry.
Positive controls were run at the beginning, during, and at the end of the screen to evaluate surface activity.
*Equation for calculation of the theoretical Rmax(Theoretical Rmax=(MW Analyte/MW Ligand)×immobilization level).

For `CNc1ccn(-c2ccnc3c2cc(CN2CCC(c4ccc(C(=O)N(C)C)cc4)CC2=O)n3C)c(=O)c1` (stereo not drawn) [Example 1f8, N,N-Dimethyl-4-[1-[[1-methyl-4-[4-(methylamino)-2-oxo-1-pyridyl]pyrrolo[2,3-b]pyridin-2-yl]methyl]-2-oxo-4-piperidyl]benzamide], the EC50 [1] was 957 nM and the Kd [2] was 134 nM.
For `CN(C)C(=O)c1ccc(C2CCN(Cc3cc4c(-n5cc(F)c(N)nc5=O)ccnc4n3C)CC2)cc1` [Example 1ac2, 4-(1-((4-(4-Amino-5-fluoro-2-oxopyrimidin-1 (2H)-yl)-1-methyl-1H-pyrrolo[2,3-b]pyridin-2-yl)methyl)piperidin-4-yl)-N,N-dimethylbenzamide], the Emax [1] was 70 to 80% and the Kd [2] was 75.4 nM.
`CNc1ccn(-c2ccnc3c2cc(CN2CC[C@@H](c4ccc(C(=O)N(C)C)cc4)[C@@H](F)C2)n3C)c(=O)c1` (single isomer, unassigned) [Example 1f7] showed an EC50 [1] of 245 nM and a Kd [2] of 21.7 nM.
Work on `CNc1ccn(-c2ccnc3c2cc(CN2CCC(c4ccc(C(=O)N(C)C)cc4C)CC2)n3C)c(=O)c1` [Example 1d25, N,N,3-Trimethyl-4-[1-[[1-methyl-4-[4-(methylamino)-2-oxo-1-pyridyl]pyrrolo[2,3-b]pyridin-2-yl]methyl]-4-piperidyl]benzamide] yielded an Emax [1] of 70 to 80% and a Kd [2] of 69.2 nM.
`CNc1ccn(-c2ccnc3c2cc(CN2CCC(c4ccc(C(=O)N(C)C)cc4F)CC2)n3C)c(=O)c1` [Example 1d34, 3-Fluoro-N,N-dimethyl-4-[1-[[1-methyl-4-[4-(methylamino)-2-oxo-1-pyridyl]pyrrolo[2,3-b]pyridin-2-yl]methyl]-4-piperidyl]benzamide] showed an EC50 [1] of 29.8 nM and a Kd [2] of 14.2 nM.
In the case of `CNc1ccn(-c2ccnc3c2cc(CN2CCN(c4ccc(C(=O)N(C)C)cc4C)CC2)n3C)c(=O)c1` [Example 1m6, N,N,3-Trimethyl-4-(4-((1-methyl-4-(4-(methylamino)-2-oxopyridin-1 (2H)-yl)-1H-pyrrolo[2,3-b]pyridin-2-yl)methyl)piperazin-1-yl)benzamide], the EC50 [1] is reported as 74.7 nM and the Kd [2] is reported as 16.6 nM.
`CNc1ccn(-c2ccnc3c2cc([C@@H](C)N2CCC(c4ccc(C(=O)N(C)C)cc4)CC2)n3C)c(=O)c1` (single isomer, unassigned) [Example 1m73] showed an EC50 [1] of 26 nM and a Kd [2] of 12.1 nM.
`[2H]C([2H])([2H])N(C(=O)c1ccc(C2CCN(Cc3cc4c(-n5ccc(NC)cc5=O)ccnc4n3C)CC2)cc1)C([2H])([2H])[2H]` [Example 1d4, 4-[1-[[1-Methyl-4-[4-(methylamino)-2-oxo-1-pyridyl]pyrrolo[2,3-b]pyridin-2-yl]methyl]-4-piperidyl]-N,N-bis(trideuteriomethyl)benzamide] gave an EC50 [1] of 221 nM and a Kd [2] of 20.9 nM.
Molecule `CNc1ccn(-c2ccnc3c2cc(CN2CC[C@@H](c4ccc(C(=O)N(C)C)cc4)[C@H](F)C2)n3C)c(=O)c1` (single isomer, unassigned) [Example 1f4] has an EC50 [1] of 205 nM and a Kd [2] of 32.2 nM.
`CNc1ccn(-c2ccnc3c2cc(CN2CC=C(c4ncc(C(=O)N(C)C)cc4F)CC2)n3C)c(=O)c1` [Example 1m67, 5-Fluoro-N,N-dimethyl-6-[1-[[1-methyl-4-[4-(methylamino)-2-oxo-1-pyridyl]pyrrolo[2,3-b]pyridin-2-yl]methyl]-3,6-dihydro-2H-pyridin-4-yl]pyridine-3-carboxamide] gave an EC50 [1] of 80.1 nM and a Kd [2] of 33.4 nM.
In the case of `CNc1ccn(-c2ccnc3c2cc(CN2CC=C(c4ccc(C(=O)N(C)C)cc4Cl)CC2)n3C)c(=O)c1` [Example 1m64, 3-Chloro-N,N-dimethyl-4-[1-[[1-methyl-4-[4-(methylamino)-2-oxo-1-pyridyl]pyrrolo[2,3-b]pyridin-2-yl]methyl]-3,6-dihydro-2H-pyridin-4-yl]benzamide], the EC50 [1] is reported as 170 nM and the Kd [2] is reported as 12 nM.
Work on `CN(C)C(=O)c1ccc(C2CCN(Cc3cc4c(-n5ccc(N)c(C(F)(F)F)c5=O)ccnc4n3C)CC2)cc1` [Example 1d29, 4-[1-[[4-[4-Amino-2-oxo-3-(trifluoromethyl)-1-pyridyl]-1-methyl-pyrrolo[2,3-b]pyridin-2-yl]methyl]-4-piperidyl]-N,N-dimethyl-benzamide] yielded an EC50 [1] of 588 nM and a Kd [2] of 28.6 nM.
